Laboratory results published in ChEMBL document CHEMBL3526122, “Identification of UDP-glucuronosyltransferases responsible for the glucuronidation of darexaban, an oral factor Xa inhibitor, in human liver and intestine” (Drug Metab Dispos, 2012).

Legend:
[1] = Intrinsic clearance in human intestinal microsomes assessed per mg of protein at 1 to 250 uM after 5 mins in presence of UDPGA; type: ADME, Intestine, Microsome
[2] = target: T1, UDP-glucuronosyltransferase 1A4 (Homo sapiens, UniProt P22310); experiment: Activity of human recombinant UGT1A4 expressed in baculovirus-infected insect cells assessed as enzyme-mediated glucuronidation per mg of protein after 10 mins in presence of UDPGA; type: ADME
T1 sequence (P22310 whole entry): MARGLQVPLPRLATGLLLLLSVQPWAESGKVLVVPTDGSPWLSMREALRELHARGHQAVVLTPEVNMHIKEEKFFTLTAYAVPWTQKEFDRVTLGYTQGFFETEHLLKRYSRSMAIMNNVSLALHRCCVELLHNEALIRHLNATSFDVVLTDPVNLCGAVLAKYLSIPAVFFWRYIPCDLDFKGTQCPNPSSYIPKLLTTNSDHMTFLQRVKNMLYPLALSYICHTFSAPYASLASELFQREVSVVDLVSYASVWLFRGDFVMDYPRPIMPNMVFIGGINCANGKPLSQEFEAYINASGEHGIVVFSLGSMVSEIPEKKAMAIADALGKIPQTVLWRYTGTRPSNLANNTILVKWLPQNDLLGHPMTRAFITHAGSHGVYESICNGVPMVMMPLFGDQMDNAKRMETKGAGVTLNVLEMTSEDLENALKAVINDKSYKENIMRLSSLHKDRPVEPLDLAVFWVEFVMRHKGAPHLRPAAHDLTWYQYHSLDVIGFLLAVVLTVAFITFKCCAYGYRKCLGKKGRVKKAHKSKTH

[3] = target: T2, UDP-glucuronosyltransferase 2B4 (Homo sapiens, UniProt P06133); experiment: Activity of human recombinant UGT2B4 expressed in baculovirus-infected insect cells assessed as enzyme-mediated glucuronidation per mg of protein after 10 mins in presence of UDPGA; type: ADME
T2 sequence (P06133 whole entry): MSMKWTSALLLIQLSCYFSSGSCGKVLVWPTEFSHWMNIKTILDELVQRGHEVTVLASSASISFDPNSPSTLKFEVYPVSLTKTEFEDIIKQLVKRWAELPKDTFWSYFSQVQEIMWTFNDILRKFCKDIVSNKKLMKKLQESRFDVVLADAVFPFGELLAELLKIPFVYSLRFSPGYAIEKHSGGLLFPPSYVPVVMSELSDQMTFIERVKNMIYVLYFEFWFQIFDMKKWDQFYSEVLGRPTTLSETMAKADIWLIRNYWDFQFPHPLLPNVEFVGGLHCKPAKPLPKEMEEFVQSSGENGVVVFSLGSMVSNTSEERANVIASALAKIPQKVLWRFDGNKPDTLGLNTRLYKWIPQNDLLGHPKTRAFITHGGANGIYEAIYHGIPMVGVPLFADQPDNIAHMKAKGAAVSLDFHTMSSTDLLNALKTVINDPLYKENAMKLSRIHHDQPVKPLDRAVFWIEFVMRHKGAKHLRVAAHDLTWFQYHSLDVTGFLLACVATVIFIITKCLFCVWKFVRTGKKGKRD

[4] = target: T3, UDP-glucuronosyltransferase 2B15 (Homo sapiens, UniProt P54855); experiment: Activity of human recombinant UGT2B15 expressed in baculovirus-infected insect cells assessed as enzyme-mediated glucuronidation per mg of protein after 10 mins in presence of UDPGA; type: ADME
T3 sequence (P54855 whole entry): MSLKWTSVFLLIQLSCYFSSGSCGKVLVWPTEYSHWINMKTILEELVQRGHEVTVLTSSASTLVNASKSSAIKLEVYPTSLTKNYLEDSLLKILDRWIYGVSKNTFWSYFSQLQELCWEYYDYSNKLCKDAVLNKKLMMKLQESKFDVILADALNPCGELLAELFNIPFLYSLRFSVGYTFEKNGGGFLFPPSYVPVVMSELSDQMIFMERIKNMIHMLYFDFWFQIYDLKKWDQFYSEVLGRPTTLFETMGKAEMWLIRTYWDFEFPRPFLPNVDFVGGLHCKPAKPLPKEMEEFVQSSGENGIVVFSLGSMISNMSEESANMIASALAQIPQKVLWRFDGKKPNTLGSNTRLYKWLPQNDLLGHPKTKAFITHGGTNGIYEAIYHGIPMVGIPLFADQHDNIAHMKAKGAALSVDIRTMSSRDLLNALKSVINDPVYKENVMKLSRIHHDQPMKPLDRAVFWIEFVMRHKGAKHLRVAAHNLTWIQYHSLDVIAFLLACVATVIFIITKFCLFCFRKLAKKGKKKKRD

[5] = target: T4, UDP-glucuronosyltransferase 1A8 (Homo sapiens, UniProt Q9HAW9); experiment: Inhibition of human recombinant UGT1A8 after 10 mins in presence of UDPGA; type: ADME
T4 sequence (Q9HAW9 whole entry): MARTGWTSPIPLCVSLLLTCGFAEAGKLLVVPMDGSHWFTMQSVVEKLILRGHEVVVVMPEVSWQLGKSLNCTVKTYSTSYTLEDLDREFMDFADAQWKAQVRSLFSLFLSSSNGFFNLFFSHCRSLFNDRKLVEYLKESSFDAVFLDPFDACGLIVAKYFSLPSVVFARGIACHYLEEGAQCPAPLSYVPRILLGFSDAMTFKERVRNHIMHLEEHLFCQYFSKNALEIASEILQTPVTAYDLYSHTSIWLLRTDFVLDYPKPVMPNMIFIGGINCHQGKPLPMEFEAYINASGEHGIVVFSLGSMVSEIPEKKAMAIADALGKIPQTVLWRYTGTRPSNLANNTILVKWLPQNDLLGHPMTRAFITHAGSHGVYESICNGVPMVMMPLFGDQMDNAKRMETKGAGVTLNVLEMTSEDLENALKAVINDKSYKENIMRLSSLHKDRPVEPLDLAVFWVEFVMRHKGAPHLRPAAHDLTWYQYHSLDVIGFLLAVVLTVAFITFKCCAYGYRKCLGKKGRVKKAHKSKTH

Liver microsome = experiment: Drug metabolism in human liver microsomes assessed as glucuronidation per mg of protein after 10 mins by Michaelis-Menten plot analysis in presence of UDPGA and 2% fatty acid free BSA; type: ADME
[6] = Ratio of Km for drug metabolism in human liver microsomes to Km for human recombinant UGT1A9-mediated drug metabolism; type: ADME; details: recombinant enzyme
[7] = Fraction unbound incubation mixture containing human recombinant UGT1A9 at 1 to 250 uM after 10 mins by ultrafiltration method in presence of 0.5% fatty acid free BSA

clearance [1]: 166 µL/min/mg
Drug metabolism [2]: < 0.01 nmol/min/mg
Drug metabolism [3]: < 0.01 nmol/min/mg
Drug metabolism [4]: < 0.01 nmol/min/mg
Ki [5]: 354 µM
Vmax (Liver microsome): 3.14 nmol/min/mg
Ratio [6]: 4.3
SMILES: COc1ccc(C(=O)Nc2cccc(O)c2NC(=O)c2ccc(N3CCCN(C)CC3)cc2)cc1.O=C(O)CCC(=O)O
Fu [7]: 0.553
